# Results reported in US7141691B2, “Protein-bound derivatives of platinum complexes containing cyclobutane1, 1-dicarboxyllate ligands” (KTB Tumorforschungs GmbH, priority 2003, dated 2006).
# System: MaTu (mammary carcinoma)
# Experiment: Efficacy in vivo, MaTu tumor model in naked mice (change in tumor volume)
# Conditions: DACH-Pt-CB-1-Mal 75 and 100 mg/kg i.v. once on day 7, carboplatin 100 mg/kg once on day 7 or 75 mg/kg on days 7 and 14
# Description: The invention is elucidated in more detail by the following examples in conjunction with the figures. […] Animals: naked mice Tumor model: MaTu (mammary carcinoma) Treatment: DACH-Pt-CB-1-Mal (75 and 100 mg/kg) and carboplatin (100 mg/kg) once on day 7, carboplatin (75 mg/kg) on each of days 7 and 14; i.v. (carboplatin and derivatives each in 0.15 0.3 ml glucose phosphate buffer pH 6.5).
compound,measurement,value
"O=C(CCOCCN1C(=O)C=CC1=O)OC1CC2(C1)C(=O)[O][Pt]1([NH]C3CCCC[C@H]3[NH]1)[O]C2=O (stereo partly drawn) [DACH-Pt-CB-1-Mal, trans-(R,R/S,S)-cyclohexane-1,2-diaminoplatinum(II)-[3-(6-maleinimido-4-oxacaproyl)cyclobutane-1,1-dicarboxylate]]",in vivo efficacy (change in the tumor volume) compared to carboplatin,increased compared to carboplatin
